Measured values as given in PubChem BioAssay AID248 (DTP/NCI, 2004).
“And” between values parts separate entries of the source, which are not always exact repeats. Identical values can stand only once. Toxic doses and inconclusive results are not listed. No stated cut-off is given here; in the data, active means T/C of 150% or more; inactive means T/C below 125%.

Tested on: L1210 leukemia ip in BDF1 mice, survival T/C
Test: NCI In Vivo Anticancer Drug Screen. Data for tumor model L1210 Leukemia (intraperitoneal) in B6D2F1 (BDF1) mice
Conditions: endpoint: mean survival time, higher = longer survival
Procedure, shortened: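 Tumor was transplanted into mice, which were then dosed with test compound or vehicle alone. Survival was recorded for each group, and the treated figure was expressed relative to the control figure.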

[1] = dose: 25.0 mg/kg/injection, schedule: Q01DX009 (ip), vehicle: saline with Tween-80
[2] = dose: 50.0 mg/kg/injection, schedule: Q01DX009 (ip), vehicle: saline with Tween-80
[3] = dose: 200.0 mg/kg/injection, schedule: Q01DX009 (ip), vehicle: saline with Tween-80
[4] = dose: 100.0 mg/kg/injection, schedule: Q01DX001 (ip), vehicle: saline
[5] = dose: 100.0 mg/kg/injection, schedule: Q04DX002 (ip), vehicle: saline with Tween-80
[6] = dose: 200.0 mg/kg/injection, schedule: Q04DX002 (ip), vehicle: saline with Tween-80
[7] = dose: 400.0 mg/kg/injection, schedule: Q04DX002 (ip), vehicle: saline with Tween-80
[8] = dose: 200.0 mg/kg/injection, schedule: Q01DX001 (ip), vehicle: saline
[9] = dose: 400.0 mg/kg/injection, schedule: Q01DX001 (ip), vehicle: saline
[10] = dose: 100.0 mg/kg/injection, schedule: Q01DX009 (ip), vehicle: saline with Tween-80
[11] = dose: 6.25 mg/kg/injection, schedule: Q01DX009 (ip), vehicle: saline
[12] = dose: 12.5 mg/kg/injection, schedule: Q01DX009 (ip), vehicle: saline
[13] = dose: 6.25 mg/kg/injection, schedule: Q01DX009 (ip), vehicle: saline with Tween-80
[14] = dose: 12.5 mg/kg/injection, schedule: Q01DX009 (ip), vehicle: saline with Tween-80
[15] = dose: 100.0 mg/kg/injection, schedule: Q04DX002 (ip), vehicle: Klucel (hydroxypropylcellulose) (HPC)

Measured: T/C

COC(=O)c1ccccc1NC(=S)NC(=O)c1ccccc1F
inactive: [1] 93 % of control | [2] 92 % of control | [3] 91 % of control

CC(CN(C)C)CN1c2ccccc2CCc2ccccc21 (stereo unspecified)
inactive: dose: 4.37 mg/kg/injection, schedule: Q01DX009 (ip), vehicle: saline 101 % of control | dose: 8.75 mg/kg/injection, schedule: Q01DX009 (ip), vehicle: saline 101 % of control | dose: 17.5 mg/kg/injection, schedule: Q01DX009 (ip), vehicle: saline 98 % of control | dose: 17.5 mg/kg/injection, schedule: Q04DX003 (ip), vehicle: saline 102 % of control | dose: 35.0 mg/kg/injection, schedule: Q01DX009 (ip), vehicle: saline 107 % of control | dose: 35.0 mg/kg/injection, schedule: Q04DX003 (ip), vehicle: saline 102 % of control | dose: 70.0 mg/kg/injection, schedule: Q04DX003 (ip), vehicle: saline 104 % of control

CC1(C)N=C(N)N=C(N)N1c1ccc(Cl)cc1Cl
inactive: dose: 20.0 mg/kg/injection, schedule: Q04DX003 (ip), vehicle: Klucel (hydroxypropylcellulose) (HPC) 104 % of control | dose: 25.0 mg/kg/injection, schedule: Q01DX001 (ip), vehicle: saline with Tween-80 97 % of control | dose: 25.0 mg/kg/injection, schedule: Q01DX009 (ip), vehicle: Klucel (hydroxypropylcellulose) (HPC) 105 % of control | dose: 40.0 mg/kg/injection, schedule: Q04DX003 (ip), vehicle: Klucel (hydroxypropylcellulose) (HPC) 100 % of control | dose: 50.0 mg/kg/injection, schedule: Q01DX001 (ip), vehicle: saline with Tween-80 93 % of control | dose: 50.0 mg/kg/injection, schedule: Q01DX009 (ip), vehicle: Klucel (hydroxypropylcellulose) (HPC) 94 % of control | dose: 80.0 mg/kg/injection, schedule: Q04DX003 (ip), vehicle: Klucel (hydroxypropylcellulose) (HPC) 94 % of control | dose: 100.0 mg/kg/injection, schedule: Q01DX001 (ip), vehicle: saline with Tween-80 97 % of control | [4] 100 % of control | dose: 100.0 mg/kg/injection, schedule: Q04DX003 (ip), vehicle: Klucel (hydroxypropylcellulose) (HPC) 94 % of control

COc1ccc(NC(=S)Nc2ccccc2)cc1
inactive: [5] 101 % of control | [6] 108 % of control | [7] 108 % of control

CC(=O)Nc1ccc(/C=N\NC(=S)Nc2ccc3cn[nH]c3c2)cc1
inactive: dose: 50.0 mg/kg/injection, schedule: Q01DX001 (ip), vehicle: carboxymethylcellulose (CMC) 100 % of control | dose: 100.0 mg/kg/injection, schedule: Q01DX001 (ip), vehicle: carboxymethylcellulose (CMC) 97 % of control | dose: 200.0 mg/kg/injection, schedule: Q01DX001 (ip), vehicle: carboxymethylcellulose (CMC) 103 % of control | dose: 400.0 mg/kg/injection, schedule: Q01DX001 (ip), vehicle: carboxymethylcellulose (CMC) 97 % of control

CCN(CC)c1ccc(/C=C(/S)C(=O)O)cc1
inactive: [4] 89 % of control | [8] 92 % of control | [9] 92 % of control

COCc1ncc2cnccn12
inactive: dose: 25.0 mg/kg/injection, schedule: Q01DX009 (ip), vehicle: saline 90 % of control | dose: 50.0 mg/kg/injection, schedule: Q01DX009 (ip), vehicle: saline 103 % of control | dose: 100.0 mg/kg/injection, schedule: Q01DX009 (ip), vehicle: saline 98 % of control and 103 % of control and 91 % of control | dose: 200.0 mg/kg/injection, schedule: Q01DX009 (ip), vehicle: saline 93 % of control

CCCCOCCCNCC(=O)Nc1ccc(S(=O)(=O)c2ccc(NC(=O)CNCCCOCCCC)cc2)cc1
inactive: [4] 89 % of control | [8] 97 % of control | [9] 108 % of control

CCN(C(=O)Nc1ccc(F)c(Cl)c1)c1ccc(Cl)cc1
inactive: [2] 100 % of control | [10] 96 % of control | [3] 96 % of control

FC(F)(F)c1ccc2c(c1)N(CCCN1CC[N+]3(CCOCC3)CC1)c1ccccc1S2
inactive: [11] 97 % of control | [12] 95 % of control | dose: 12.5 mg/kg/injection, schedule: Q04DX003 (ip), vehicle: saline 114 % of control | dose: 25.0 mg/kg/injection, schedule: Q04DX003 (ip), vehicle: saline 91 % of control

Nc1nc(N)c2ncn(C3CC(CO)C(O)C3O)c2n1 (stereo unspecified)
inactive: [13] 91 % of control | [14] 98 % of control | [1] 102 % of control

Oc1c(Br)cc(Nc2c3ccccc3nc3ccccc23)cc1Br
inactive: [5] 100 % of control | [6] 95 % of control | [7] 100 % of control

CC(=O)N1Cc2cccn2Cc2cc3c(cc21)OCO3
inactive: dose: 25.0 mg/kg/injection, schedule: Q04DX002 (ip), vehicle: Klucel (hydroxypropylcellulose) (HPC) 97 % of control | dose: 50.0 mg/kg/injection, schedule: Q04DX002 (ip), vehicle: Klucel (hydroxypropylcellulose) (HPC) 87 % of control | [15] 97 % of control

Cc1nc(NNCc2ccccc2)n[nH]1
inactive: dose: 37.5 mg/kg/injection, schedule: Q01DX001 (ip), vehicle: Klucel (hydroxypropylcellulose) (HPC) 106 % of control | dose: 75.0 mg/kg/injection, schedule: Q01DX001 (ip), vehicle: Klucel (hydroxypropylcellulose) (HPC) 101 % of control | dose: 150.0 mg/kg/injection, schedule: Q01DX001 (ip), vehicle: Klucel (hydroxypropylcellulose) (HPC) 110 % of control

c1csc(Cc2cccs2)c1
inactive: dose: 50.0 mg/kg/injection, schedule: Q01DX009 (ip), vehicle: other 112 % of control | dose: 100.0 mg/kg/injection, schedule: Q01DX009 (ip), vehicle: other 112 % of control | dose: 200.0 mg/kg/injection, schedule: Q01DX009 (ip), vehicle: other 116 % of control

CC(=O)Nc1ccccc1Sc1ccc(Br)cc1[N+](=O)[O-]
inactive: dose: 75.0 mg/kg/injection, schedule: Q04DX003 (ip), vehicle: saline 91 % of control | dose: 150.0 mg/kg/injection, schedule: Q04DX003 (ip), vehicle: saline 90 % of control | dose: 300.0 mg/kg/injection, schedule: Q04DX003 (ip), vehicle: saline 87 % of control

N\C([S-])=N/N=C\C(=N/N=C(\N)[S-])C(O)C(O)C(O)CO.[Ni+2] (stereo unspecified)
inactive: dose: 100.0 mg/kg/injection, schedule: Q04DX003 (ip), vehicle: saline with Tween-80 96 % of control | dose: 200.0 mg/kg/injection, schedule: Q04DX003 (ip), vehicle: saline with Tween-80 94 % of control | dose: 400.0 mg/kg/injection, schedule: Q04DX003 (ip), vehicle: saline with Tween-80 91 % of control

O=C(/C=C/c1cccc([N+](=O)[O-])c1)c1ccccc1[N+](=O)[O-]
inactive: [15] 103 % of control | dose: 200.0 mg/kg/injection, schedule: Q04DX002 (ip), vehicle: Klucel (hydroxypropylcellulose) (HPC) 103 % of control | dose: 400.0 mg/kg/injection, schedule: Q04DX002 (ip), vehicle: Klucel (hydroxypropylcellulose) (HPC) 100 % of control

CCOCc1c(COc2ccc(Br)cc2)n(CC)c2ccccc12
inactive: [10] 93 % of control | [3] 90 % of control | dose: 400.0 mg/kg/injection, schedule: Q01DX009 (ip), vehicle: saline with Tween-80 90 % of control

Cc1cc2c(cc1C)C1(c3ccccc3)OC2(c2ccccc2)C(C(=O)c2ccccc2)C1C(=O)c1ccccc1 (stereo unspecified)
inactive: [2] 91 % of control | [10] 91 % of control | [3] 91 % of control

Cc1cn2ccccc2c[n+]1=O
inactive: dose: 5.0 mg/kg/injection, schedule: Q01DX009 (ip), vehicle: saline sonified 98 % of control | dose: 10.0 mg/kg/injection, schedule: Q01DX009 (ip), vehicle: saline sonified 98 % of control | dose: 20.0 mg/kg/injection, schedule: Q01DX009 (ip), vehicle: saline sonified 87 % of control

CCOC(=O)C[P+](c1cccc(OC)c1)(c1cccc(OC)c1)c1cccc(OC)c1
inactive: dose: 15.0 mg/kg/injection, schedule: Q01DX001 (ip), vehicle: carboxymethylcellulose (CMC) 90 % of control | dose: 30.0 mg/kg/injection, schedule: Q01DX001 (ip), vehicle: carboxymethylcellulose (CMC) 91 % of control

O=C1OC(=O)C2C1C1(Cl)CC2(Cl)C(Cl)=C1Cl (stereo unspecified)
inactive: dose: 75.0 mg/kg/injection, schedule: Q01DX009 (ip), vehicle: other 101 % of control | dose: 150.0 mg/kg/injection, schedule: Q01DX009 (ip), vehicle: other 88 % of control

Cl[CH2][Sn]([c]1ccccc1)([c]1ccccc1)[c]1ccccc1
inactive: [13] 113 % of control | [11] 93 % of control | [14] 106 % of control | [12] 101 % of control | [1] 101 % of control
